Data published in ChEMBL document CHEMBL1201862, “PubChem BioAssay data set” (2004).
Calls of active or inactive are those of the source.

Key:
[1] = inhibitors of TNFa-stimulated NF-kB luciferase reporter, dose response, selectivity assay for EBV LMP1 NF-kB inhibitor project, HEK293 LMP1 reporter cells, dry powder, set 2 (AID 624369); format: functional
[2] = inhibitors of LMP1-driven NF-kB reporter, dose response, cell-based, EBV LMP1, luciferase, dry powder, set 2 (AID 624361); format: functional
[3] = biological target: T1, Low molecular weight phosphotyrosine protein phosphatase (Homo sapiens, UniProt P24666); format: functional; settings: read-out: IC50_Mean
T1 sequence (P24666 whole entry): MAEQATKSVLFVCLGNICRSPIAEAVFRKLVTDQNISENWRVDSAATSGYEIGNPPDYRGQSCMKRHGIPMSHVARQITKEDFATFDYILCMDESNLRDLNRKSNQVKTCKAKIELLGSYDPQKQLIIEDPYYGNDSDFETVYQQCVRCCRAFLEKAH

[4] = biological target: Dual specificity protein phosphatase 3 (Homo sapiens, UniProt P51452); assay: VHR phosphatase inhibition, dose response, selectivity assay for STEP inhibitor project, biochemical (AID 602374); format: functional; settings: read-out: IC50_Mean
Chain of Dual specificity protein phosphatase 3 (P51452 whole entry): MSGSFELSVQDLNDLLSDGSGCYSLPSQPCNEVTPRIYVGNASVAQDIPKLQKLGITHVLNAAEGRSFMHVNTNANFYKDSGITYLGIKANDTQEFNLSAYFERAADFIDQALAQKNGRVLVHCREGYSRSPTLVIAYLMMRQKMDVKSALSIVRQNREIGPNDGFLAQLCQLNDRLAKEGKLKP

[5] = biological target: T2, Tyrosine-protein phosphatase non-receptor type 22 (Homo sapiens, UniProt Q9Y2R2); assay: PTPN22 phosphatase inhibition, dose response, selectivity assay for STEP inhibitor project, biochemical (AID 624241); format: functional
T2 sequence (Q9Y2R2 whole entry): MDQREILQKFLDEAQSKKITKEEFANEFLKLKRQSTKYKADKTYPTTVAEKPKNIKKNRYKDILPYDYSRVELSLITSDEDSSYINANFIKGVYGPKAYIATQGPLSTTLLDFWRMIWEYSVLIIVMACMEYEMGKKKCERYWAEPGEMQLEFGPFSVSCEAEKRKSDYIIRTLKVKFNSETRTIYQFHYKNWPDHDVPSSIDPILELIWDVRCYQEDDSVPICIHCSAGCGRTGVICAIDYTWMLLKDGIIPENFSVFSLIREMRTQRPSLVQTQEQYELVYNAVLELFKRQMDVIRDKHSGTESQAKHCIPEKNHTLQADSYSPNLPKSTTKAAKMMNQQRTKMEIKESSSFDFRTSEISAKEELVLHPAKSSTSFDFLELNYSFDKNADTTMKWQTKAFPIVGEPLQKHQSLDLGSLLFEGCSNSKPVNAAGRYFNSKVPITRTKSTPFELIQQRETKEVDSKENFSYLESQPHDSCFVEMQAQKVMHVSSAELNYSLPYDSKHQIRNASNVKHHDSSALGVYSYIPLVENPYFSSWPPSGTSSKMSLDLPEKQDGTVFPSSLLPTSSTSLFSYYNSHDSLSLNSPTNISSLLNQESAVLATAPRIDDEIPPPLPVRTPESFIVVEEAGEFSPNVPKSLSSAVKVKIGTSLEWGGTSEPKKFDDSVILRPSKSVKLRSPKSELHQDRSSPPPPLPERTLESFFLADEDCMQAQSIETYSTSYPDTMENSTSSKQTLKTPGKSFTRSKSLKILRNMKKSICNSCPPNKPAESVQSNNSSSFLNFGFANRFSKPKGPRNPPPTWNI

[6] = biological target: Tyrosine-protein phosphatase non-receptor type 5 (Homo sapiens, UniProt P54829); assay: STEP phosphatase inhibitors, confirmation, biochemical, fluorescence intensity, uHTS hits (AID 602372); format: functional; settings: read-out: IC50_Mean
Chain of Tyrosine-protein phosphatase non-receptor type 5 (P54829 whole entry): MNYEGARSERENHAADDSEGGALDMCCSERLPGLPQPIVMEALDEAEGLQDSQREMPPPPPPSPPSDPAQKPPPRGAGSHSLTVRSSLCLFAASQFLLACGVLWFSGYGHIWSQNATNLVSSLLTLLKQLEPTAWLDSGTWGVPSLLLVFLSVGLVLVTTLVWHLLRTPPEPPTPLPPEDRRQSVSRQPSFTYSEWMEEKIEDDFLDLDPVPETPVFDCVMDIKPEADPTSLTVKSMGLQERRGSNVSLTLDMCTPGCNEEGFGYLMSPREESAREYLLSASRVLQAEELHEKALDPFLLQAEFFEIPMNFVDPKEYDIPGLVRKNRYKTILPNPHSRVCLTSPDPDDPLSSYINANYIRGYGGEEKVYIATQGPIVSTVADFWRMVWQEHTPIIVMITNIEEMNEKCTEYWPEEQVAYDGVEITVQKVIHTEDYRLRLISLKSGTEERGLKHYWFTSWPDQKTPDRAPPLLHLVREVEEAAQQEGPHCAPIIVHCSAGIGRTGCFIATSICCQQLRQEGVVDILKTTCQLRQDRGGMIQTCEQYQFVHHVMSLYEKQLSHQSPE

[7] = biological target: Tyrosine-protein phosphatase non-receptor type 11 (Homo sapiens, UniProt Q06124); assay: SHP2 phosphatase inhibition, dose response, selectivity assay for STEP inhibitor project, biochemical (AID 602367); format: functional; settings: read-out: IC50_Mean
Chain of Tyrosine-protein phosphatase non-receptor type 11 (Q06124 whole entry): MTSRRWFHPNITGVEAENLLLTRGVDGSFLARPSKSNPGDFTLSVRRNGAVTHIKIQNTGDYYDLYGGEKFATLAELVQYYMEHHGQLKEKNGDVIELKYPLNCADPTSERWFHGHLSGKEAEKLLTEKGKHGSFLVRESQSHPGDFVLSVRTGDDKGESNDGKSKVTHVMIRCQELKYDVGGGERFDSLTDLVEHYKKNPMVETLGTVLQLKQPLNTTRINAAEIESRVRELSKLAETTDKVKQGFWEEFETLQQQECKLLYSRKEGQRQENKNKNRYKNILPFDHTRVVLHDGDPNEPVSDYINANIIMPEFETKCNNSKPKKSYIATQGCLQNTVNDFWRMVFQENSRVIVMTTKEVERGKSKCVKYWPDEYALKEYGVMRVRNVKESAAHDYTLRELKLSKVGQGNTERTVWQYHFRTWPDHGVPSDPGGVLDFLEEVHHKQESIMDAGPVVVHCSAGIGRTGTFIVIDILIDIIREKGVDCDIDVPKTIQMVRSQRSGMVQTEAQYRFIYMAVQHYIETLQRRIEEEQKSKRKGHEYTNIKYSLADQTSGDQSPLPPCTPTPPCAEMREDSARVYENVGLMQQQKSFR

[8] = biological target: T1, Low molecular weight phosphotyrosine protein phosphatase; format: functional; settings: read-out: IC50_Mean; remark: listed apart in the source
[9] = biological target: Disintegrin and metalloproteinase domain-containing protein 17 (Homo sapiens, UniProt P78536); assay: exosite inhibitors of ADAM17, dose response, biochemical (AID 743260)
Chain of Disintegrin and metalloproteinase domain-containing protein 17 (P78536 whole entry, the tested form may be a part): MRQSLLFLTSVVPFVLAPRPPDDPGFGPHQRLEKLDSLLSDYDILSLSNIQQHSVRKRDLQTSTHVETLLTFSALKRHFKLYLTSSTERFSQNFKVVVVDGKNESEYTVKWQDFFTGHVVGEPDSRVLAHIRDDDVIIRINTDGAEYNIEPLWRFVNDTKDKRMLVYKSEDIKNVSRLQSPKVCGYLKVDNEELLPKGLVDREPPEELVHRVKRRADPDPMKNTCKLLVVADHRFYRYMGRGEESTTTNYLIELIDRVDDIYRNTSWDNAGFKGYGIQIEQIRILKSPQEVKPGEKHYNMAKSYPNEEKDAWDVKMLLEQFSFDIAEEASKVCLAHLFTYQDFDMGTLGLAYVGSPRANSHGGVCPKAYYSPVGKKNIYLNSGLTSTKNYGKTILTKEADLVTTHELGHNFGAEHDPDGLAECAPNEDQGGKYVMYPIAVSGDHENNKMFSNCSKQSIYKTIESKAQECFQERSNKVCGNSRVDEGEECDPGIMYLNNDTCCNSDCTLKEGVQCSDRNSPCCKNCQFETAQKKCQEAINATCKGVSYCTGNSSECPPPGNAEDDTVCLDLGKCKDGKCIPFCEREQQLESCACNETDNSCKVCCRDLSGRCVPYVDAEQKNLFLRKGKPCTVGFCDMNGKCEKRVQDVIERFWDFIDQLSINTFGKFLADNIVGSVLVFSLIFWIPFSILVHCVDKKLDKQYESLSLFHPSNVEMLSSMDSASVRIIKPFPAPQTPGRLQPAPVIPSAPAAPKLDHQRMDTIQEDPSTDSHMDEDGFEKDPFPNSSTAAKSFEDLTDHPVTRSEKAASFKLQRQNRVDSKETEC

[10] = ADAM10 protease inhibitors, dose response, selectivity assay for ADAM17 exosite inhibitor project, biochemical, FRET peptide substrate, recombinant human ADAM10 (AID 743259);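 further: ADAM10 enzyme cleaving a FRET peptide substrate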
[11] = biological target: SWI/SNF-related matrix-associated actin-dependent regulator of chromatin subfamily A member 2 (Homo sapiens, UniProt P51531); assay: Luminescence-based cell-based high throughput dose response assay to identify activators of the function of SWI/SNF related, matrix associated, actin dependent regulator of chromatin, subfamily a, member 2 (SMARCA2, BRM).; format: functional
Chain of SWI/SNF-related matrix-associated actin-dependent regulator of chromatin subfamily A member 2 (P51531 whole entry): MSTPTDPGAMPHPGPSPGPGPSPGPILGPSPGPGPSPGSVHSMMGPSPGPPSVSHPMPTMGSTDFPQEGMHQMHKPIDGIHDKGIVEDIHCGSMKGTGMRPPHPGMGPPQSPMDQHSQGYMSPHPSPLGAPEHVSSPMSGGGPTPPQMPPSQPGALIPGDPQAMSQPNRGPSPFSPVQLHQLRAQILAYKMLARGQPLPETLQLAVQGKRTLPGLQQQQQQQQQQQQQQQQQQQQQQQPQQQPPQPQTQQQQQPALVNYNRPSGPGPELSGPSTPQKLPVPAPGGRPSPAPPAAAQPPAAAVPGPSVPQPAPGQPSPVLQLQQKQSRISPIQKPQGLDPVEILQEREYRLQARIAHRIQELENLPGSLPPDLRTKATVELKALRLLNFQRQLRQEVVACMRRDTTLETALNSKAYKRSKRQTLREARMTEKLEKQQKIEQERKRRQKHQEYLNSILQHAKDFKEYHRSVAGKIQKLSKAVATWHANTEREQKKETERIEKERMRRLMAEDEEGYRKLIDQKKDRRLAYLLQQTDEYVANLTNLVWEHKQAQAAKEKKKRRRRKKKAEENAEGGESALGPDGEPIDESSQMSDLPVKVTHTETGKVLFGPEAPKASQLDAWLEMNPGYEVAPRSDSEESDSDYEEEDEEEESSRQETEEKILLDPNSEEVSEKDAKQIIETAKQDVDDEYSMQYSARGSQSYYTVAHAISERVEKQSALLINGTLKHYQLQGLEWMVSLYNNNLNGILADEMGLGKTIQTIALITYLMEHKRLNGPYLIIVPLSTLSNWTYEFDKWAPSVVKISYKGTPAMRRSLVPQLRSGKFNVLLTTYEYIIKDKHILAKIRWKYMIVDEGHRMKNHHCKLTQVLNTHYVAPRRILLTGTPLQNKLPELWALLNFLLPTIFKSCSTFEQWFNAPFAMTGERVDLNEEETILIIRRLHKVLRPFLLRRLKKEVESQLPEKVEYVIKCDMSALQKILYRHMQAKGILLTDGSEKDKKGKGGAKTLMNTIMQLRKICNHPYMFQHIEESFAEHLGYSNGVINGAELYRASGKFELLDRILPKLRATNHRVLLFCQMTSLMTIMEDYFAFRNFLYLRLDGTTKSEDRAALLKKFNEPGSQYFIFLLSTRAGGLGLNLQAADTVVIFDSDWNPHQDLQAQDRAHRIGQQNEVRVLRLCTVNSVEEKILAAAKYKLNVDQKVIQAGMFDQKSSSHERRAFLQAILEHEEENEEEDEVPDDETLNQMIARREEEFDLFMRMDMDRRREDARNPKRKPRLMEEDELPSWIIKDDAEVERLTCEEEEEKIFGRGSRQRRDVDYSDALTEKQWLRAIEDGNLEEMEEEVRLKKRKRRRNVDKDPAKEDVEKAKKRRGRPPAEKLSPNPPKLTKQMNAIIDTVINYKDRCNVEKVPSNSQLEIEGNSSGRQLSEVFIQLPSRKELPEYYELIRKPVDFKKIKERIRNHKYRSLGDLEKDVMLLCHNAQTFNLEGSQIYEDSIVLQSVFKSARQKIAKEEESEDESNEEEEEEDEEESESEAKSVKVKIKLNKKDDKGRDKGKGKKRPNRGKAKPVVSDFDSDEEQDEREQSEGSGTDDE

[12] = Counterscreen for activators of the function of SWI/SNF related, matrix associated, actin dependent regulator of chromatin, subfamily a, member 2 (SMARCA2, BRM): Luminescence-based cell-based high throughput dose response assay to identify non-selective compounds using the VP16 reporter assay.; format: functional
[13] = biological target: T3, Beta-lactamase (Pseudomonas aeruginosa, UniProt Q79MP6); assay: IMP-1 metallo-beta-lactamase inhibitors, dose response, selectivity assay for VIM-2 inhibitor project, biochemical, epi-absorbance (AID 1920)
T3 sequence (Q79MP6 whole entry): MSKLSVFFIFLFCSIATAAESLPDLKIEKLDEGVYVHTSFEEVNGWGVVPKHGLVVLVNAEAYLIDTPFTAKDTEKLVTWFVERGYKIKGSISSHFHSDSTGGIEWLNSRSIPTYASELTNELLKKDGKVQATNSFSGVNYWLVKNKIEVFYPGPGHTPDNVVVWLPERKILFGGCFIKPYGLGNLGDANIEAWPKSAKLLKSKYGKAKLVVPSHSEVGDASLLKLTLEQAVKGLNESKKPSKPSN

[14] = biological target: T3, Beta-lactamase; assay: […] counterscreen for selective VIM-2 inhibitors: dose response biochemical high throughput screening assay to identify inhibitors of IMP-1 metallo-beta-lactamase.
[15] = biological target: Beta-lactamase (Salmonella choleraesuis (strain SC-B67), UniProt Q5J463); assay: Epi-absorbance-based counterscreen for selective VIM-2 inhibitors: dose response biochemical high throughput screening assay to identify inhibitors of TEM-1 serine-beta-lactamase.
Chain of Beta-lactamase (Salmonella choleraesuis (strain SC-B67), UniProt Q5J463) (Q5J463 whole entry): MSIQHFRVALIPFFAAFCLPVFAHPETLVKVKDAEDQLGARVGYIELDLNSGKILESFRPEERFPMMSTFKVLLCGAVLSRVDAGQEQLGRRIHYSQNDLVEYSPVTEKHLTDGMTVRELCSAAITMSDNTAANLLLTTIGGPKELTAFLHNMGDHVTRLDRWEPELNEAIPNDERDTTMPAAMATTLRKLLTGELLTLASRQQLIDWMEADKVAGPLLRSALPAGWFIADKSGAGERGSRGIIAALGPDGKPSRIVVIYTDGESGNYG

[16] = biological target: T4, DNA repair protein RAD52 homolog (Homo sapiens, UniProt P43351); format: functional, biochemical
T4 sequence (P43351 whole entry): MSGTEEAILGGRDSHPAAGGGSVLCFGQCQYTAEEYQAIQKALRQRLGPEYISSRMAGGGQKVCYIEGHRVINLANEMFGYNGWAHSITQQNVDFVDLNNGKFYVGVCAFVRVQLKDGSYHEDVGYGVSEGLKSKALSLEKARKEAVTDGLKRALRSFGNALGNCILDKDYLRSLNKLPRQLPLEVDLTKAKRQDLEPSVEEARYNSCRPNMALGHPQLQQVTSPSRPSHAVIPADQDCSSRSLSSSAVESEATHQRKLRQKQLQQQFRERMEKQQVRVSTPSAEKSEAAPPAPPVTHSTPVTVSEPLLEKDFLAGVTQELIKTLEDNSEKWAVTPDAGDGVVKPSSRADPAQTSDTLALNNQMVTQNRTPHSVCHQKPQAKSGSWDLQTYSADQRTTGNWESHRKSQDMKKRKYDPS

[17] = HepG2 cell cytotoxicity, dose response, cytotoxicity control, ATP luminescence, cherry-pick, activator set 2 (AID 1053143); format: functional, cell-based

Which AbsAC35 [1] does the source give for O=C(C[C@H]1CC[C@@H]2[C@H](COC[C@H](O)CN2Cc2ccc(Oc3ccccc3)cc2)O1)N1CCc2ccccc2C1 here?
The AbsAC35 was 121.3 µM.

And the AbsAC35 [2]?
Its AbsAC35 is 66.11 µM.

For C/C(=N\NC(=O)c1ccccc1O)c1ccc(NC(=O)Cc2ccccc2)cc1, which IC50 [3] is on record?
The IC50 was 15.9 µM (active).

And the IC50 [4]?
Its IC50 is 2.38 µM (active).

And the IC50 [5]?
Its IC50 is > 100 µM (inactive).

What about the IC50 [6] of the same compound?
Its IC50 is 12.8 µM (active).

And the IC50 [7]?
Its IC50 is 2.01 µM (active).

And the IC50 [8]?
Its IC50 is 14.2 µM (active).

Which IC50 [9] does the source give for CCSc1nsc(NC(=O)Nc2cccc(OC)c2)n1 here?
Its IC50 is > 69.5 µM (inactive).

What about the IC50 [10] of the same compound?
The IC50 was > 69.5 µM (inactive).

With COc1ccc(-c2nnc(-c3ccc(N(C)C)cc3)o2)cc1 as the compound, how does the EC50 [11] read?
The EC50 was > 91.2 µM (inactive).

What about the EC50 [12] of the same compound?
The EC50 was > 91.2 µM (inactive).

With COCC(C)NC(=O)c1cc2cccc([N+](=O)[O-])c2[nH]1 (configuration not stated) as the compound, how does the IC50 [13] read?
Its IC50 is > 59.6 µM (inactive).

And the IC50 [14]?
Its IC50 is > 59.6 µM (inactive).

And the IC50 [15]?
The IC50 was > 59.6 µM (inactive).

Which results are given for CCN1CCN(c2cc(C)c3cc(NC(=O)c4cc(OC)cc(OC)c4)ccc3n2)CC1?
AC50 [16]: 11.2 µM (active); AC50 [17]: 17.1 µM (active)
